According to patent publication US4914086A, “Method for treating African human and veterinary trypanosomiases” (priority 1987, dated 1990):

How the values were obtained:
[1] = system: Trypanosoma brucei gambiense; conditions: bone marrow tissue culture system; cited from earlier work
mammalian cells = conditions: cited from earlier work
[2] = system: bloodstream trypomastigotes; conditions: in culture; cited from earlier work
T. b. brucei EATRO 110 = assay: Delayed administration of 9-DINO on the EATRO 110 model (Table 2); type: in vivo, Trypanosoma brucei brucei (in Swiss-Webster mice); conditions: for # Cured/Total / % Cured: 3 days
Text: T. b. brucei EATRO 110 isolate was maintained as described (Bacchi, C. J., H. C. Nathan, S. H. Hutner, P. P. McCann and A. Sjoerdsma; Polyamine metabolism: a potential chemotherapeutic target in trypanosomes. Science 210: 332-334, 1980). It produces an acute, rapidly fatal parasitemia which is lethal to mice 3-5 days after inoculation. Two T. B. brucei strains, TREU 667 and LUMP 1001 developed by Jennings and coworkers (Jennings, F. W., D. D. Whitelaw and G. M. Urquhart; The relationship between duration of infection with Trypanosoma brucei in mice and the efficacy of chemotherapy. Parasitology 75: 143-153, 1977/Jennings, F. W. and G. D. Gray; Relapsed parasitemia following chemotherapy of chronic T. brucei infections in mice and its relation to cerebral trypanosomes; Contr. Microbiol. Immunol. 7 147-154, 1983) were used as CNS models. Both produce infections which are refractory to Berenil® (diminazene aceturate) and develop within 21 days after inoculation. They are not usually fatal until >40 days after inoculation. LUMP 1001 causes a more virulent CNS infection than TREU 667, and is regarded as more difficult to cure (Jennings, F. W. and G. D. Gray. Relapsed parasitemia following chemotherapy of chronic T. brucei infections in mice and its relation to cerebral trypanosomes. Contr. Microbiol. Immunol. 7 147-154, 1983).
Swiss-Webster (25-30 g) mice were used throughout. […] Animals were divided into groups of 5 before treatment. Cured animals survived >30 days beyond deaths of controls. All compounds were administered by i.p. injection.

Leishmania spp = conditions: previous studies; cited from earlier work
African trypanosomes = conditions: previous studies; cited from earlier work
mouse L cells = conditions: cited from earlier work
T. brucei subsp. = conditions: cited from earlier work
[3] = treatment begun 48 h post infection, 25 mg/kg i.p. daily
[4] = treatment begun 48 h post infection, 50 mg/kg i.p. daily
[5] = treatment begun 48 h post infection, 100 mg/kg i.p. daily
[6] = treatment begun 72 h post infection, 25 mg/kg i.p. daily, only fully treated animals
[7] = treatment begun 72 h post infection, 50 mg/kg i.p. daily, only fully treated animals
[8] = treatment begun 72 h post infection, 100 mg/kg i.p. daily, only fully treated animals

O=c1[nH]cnc2c([C@@H]3O[C@H](CO)[C@@H](O)[C@H]3O)c[nH]c12 [9-DINO, 7-beta-D-ribofuranosyl-4-oxo-3H, 5H-pyrrolo (3,2-d) pyrimidine]
activity in words [1]: active at very low concentrations | cleavage into ribose and purine analog moieties (mammalian cells): cannot be cleaved into ribose and purine analog moieties | metabolism in words [2]: converted to toxic adenosine nucleotide analogues | efficacy in words (T. b. brucei EATRO 110; treatment at 48 h post infection, 25 to 100 mg/kg): completely effective | # Cured/Total (T. b. brucei EATRO 110; [3]): 5/5 | % Cured (T. b. brucei EATRO 110; [3]): 100% | # Cured/Total (T. b. brucei EATRO 110; [4]): 5/5 | % Cured (T. b. brucei EATRO 110; [4]): 100% | # Cured/Total (T. b. brucei EATRO 110; [5]): 5/5 | % Cured (T. b. brucei EATRO 110; [5]): 100% | # Cured/Total (T. b. brucei EATRO 110; [6]): 6/10 | % Cured (T. b. brucei EATRO 110; [6]): 60% | # Cured/Total (T. b. brucei EATRO 110; [7]): 6/10 | % Cured (T. b. brucei EATRO 110; [7]): 60% | # Cured/Total (T. b. brucei EATRO 110; [8]): 6/9 | % Cured (T. b. brucei EATRO 110; [8]): 67% | activity in words (T. b. brucei EATRO 110; treatment delayed 48 or 72 h post infection): active | activity in words (Leishmania spp): more active than allopurinol, thipurinol, and their respective nucleosides | activity in words (African trypanosomes): more active than allopurinol, thipurinol, and their respective nucleosides | toxicity in words (mouse L cells): neither toxic for mouse L cells | metabolism in words (T. brucei subsp.): can be aminated by T. brucei subsp. and converted to analogs of ATP
